Measurements reported in paper PMC9953703, “Bacterial Quorum-Sensing Peptides as Immune Modulators Present in Systemic Circulation” (Biomolecules, 2023).
Residues, ends and D or L forms follow the SMILES beside them.

Assays:
human red blood cells = conditions: human RBC, 1 μM QSP, 1 h, 37 °C
Protocol: In vitro haemolysis of Q007, Q010, Q017 and Q212 was determined using previously described procedures. Briefly, freshly obtained human blood was centrifuged and the precipitate washed using freshly prepared 150 mM NaCl solution. After the final centrifugation step, the precipitate was resuspended into 100 mM sodium phosphate buffer pH 7.4. A 1 to 10 RBC solution was incubated for 1 h at 37 °C with QSP at a concentration of 1 μM. The absorbance of the supernatant was measured at 405 nm and corrected for the blank absorbance. The percent haemolysis was then calculated using the following equation: [(Asample − Ablank)/(Apositive control − Ablank)] × 100, with 1% (v/v) Triton X-100 being the positive control.

in vitro [1] = conditions: human plasma (500 µL) in Krebs-Henseleit buffer pH 7.4, 100 µg peptide, 37 °C shaking, 0, 30 and 120 min, UPLC-PDA, first-order kinetics; for half-life: human, plasma, pH 7.4, Plasma Half-Life
Protocol: In vitro chemical and metabolic stability of Q007, Q010, Q017 and Q212 was determined in cell medium and human plasma, respectively, using previously described procedures. In brief, 100 µg of peptide was incubated in Krebs–Henseleit buffer pH 7.4 with cell medium/plasma (500 µL) at 37 °C while shaking. At predetermined time intervals (i.e., 0, 6 and 24 h for cell medium; 0, 30 and 120 min for plasma), aliquots were immediately transferred into microtubes containing 1:1 volume of 1% (v/v) trifluoroacetic acid solution in water. The enzyme reaction was further stopped by heating the solution at 95 °C for 5 min. Next, the samples were centrifuged to precipitate the denatured proteins and the supernatant analysed using UPLC-PDA (Waters, Milford, MA, USA). Appropriate placebo solutions were similarly prepared. Assuming first-order kinetics, the rate constant k was obtained from ln(Pt/Pt0) = −kt, from which the half-life was determined as T1/2 = ln(2)/k.

in vitro [2] = conditions: human, Caco-2
Protocol: Caco-2 permeability tests were performed as described by Wynendaele et al. [7], based on the protocol of Hubatsch et al. [14]. Briefly, Caco-2 cells were seeded on 12-well polycarbonate membrane filters (0.4 μm pore size, Corning, Teltow, Germany) and left for differentiation during 21–29 days. […] Samples were quantitatively analysed using UPLC-MS/MS. Four independent biological replicates were used (different days and well-plates), with each between 3 and 6 technical replicates (i.e., different wells on one plate/in one day).

Structure (SMILES)	haemolysis-inducing effect (human red blood cells)	Plasma Half-Life (in vitro [1])	half-life (in vitro [1])	Papp A→B at 30 min (in vitro [2])
C[C@@H](O)[C@H](NC(=O)[C@H](Cc1c[nH]c2ccccc12)NC(=O)[C@@H]1CCCN1C(=O)[C@H](CO)NC(=O)[C@@H](N)Cc1ccc(O)cc1)C(=O)N[C@@H](CC(N)=O)C(=O)N[C@@H](Cc1ccccc1)C(N)=O [Q007, RNAIII Inhibiting Peptide (RIP)] (H-YSPWTNF-NH2)	did not induce haemolysis	2.2 h	120 min	–
CC(C)C[C@H](NC(=O)[C@H](CC(=O)O)NC(=O)[C@H](C)N)C(=O)N1CCC[C@H]1C(=O)N[C@@H](Cc1ccccc1)C(=O)N[C@@H](CCC(=O)O)C(=O)N[C@@H](Cc1ccccc1)C(=O)O [Q010, PapR7I] (H-ADLPFEF-OH)	lack of haemolysis-inducing effects	9.2 h	540 min	0.0129 ×10⁻⁶ cm/s
CC[C@H](C)[C@H](NC(=O)[C@H](CC(C)C)NC(=O)[C@H](C)N)C(=O)N[C@@H](CC(C)C)C(=O)N[C@H](C(=O)N[C@@H](CC(C)C)C(=O)N[C@H](C(=O)N[C@@H](CO)C(=O)O)C(C)C)[C@@H](C)O [Q017, iPD1] (H-ALILTLVS-OH)	–	–	150 min	–
CC(C)[C@H](N)C(=O)N1CCC[C@H]1C(=O)N[C@@H](Cc1ccccc1)C(=O)N[C@@H](CCC(=O)O)C(=O)N[C@@H](Cc1ccccc1)C(=O)O [Q212, PapR5III] (H-VPFEF-OH)	–	–	12 min	–
